Literature values as cited in patent publication US9943402B2, “Micropatterned intraocular implant” (InSight Innovations, LLC, priority 2008, dated 2018).

System: posterior capsule opacification (PCO)
Conditions: topical treatment after phacoemulsification

| Structure (SMILES) | inhibition of PCO (in words) |
| --- | --- |
| COc1ccc2c(c1)c(CC(=O)O)c(C)n2C(=O)c1ccc(Cl)cc1 [indomethacin] | do not appear to inhibit PCO |
| O=C(O)Cc1ccccc1Nc1c(Cl)cccc1Cl [diclofenac] | do not appear to inhibit PCO |
